Data on two molecules can be found in patent US4874862A, “Process for preparing guanine derivatives” (Warner-Lambert Company, priority 1987, dated 1989).

The data set has as its system T-cells. Description: standard test of selective cytotoxicity for T-cells in the presence of 2'-deoxyguanosine. The format is cell-based. The following applies: in the presence of 10 uM of 2'-deoxyguanosine. As to the method: PNP-4 activity was measured radiochemically by measuring the formation of [^14 -C]-hypoxanthine from [^14 -C]-inosine [Biomedicine, 33, 39 (1980)] using human erythrocyte as the enzyme source. The same compounds also were found by a standard test (Science, 214, 1137, (1981)] to be selectively cytotoxic for T-cells in the presence of 2'-deoxyguanosine at a similar concentration range. For example, 8-amino-9-[(4-methylphenyl)methyl]guanine is selectively cytotoxic to T-cells at a concentration of about 3.1 uM in the presence of 10 uM of 2'-deoxyguanosine. Similarly, 8-amino-9-[(4-methoxyphenyl)methyl]guanine is selectively cytotoxic to T-cells at a concentration of about 1.1 uM in the presence of 10 uM of 2'-deoxyguanosine. On the other hand, these compounds were nontoxic to B-cells in the presence or absence of the same amount of 2'-deoxyguanosine. Since T-cells play a central role in immune response, use of the compounds of the invention is contemplated for the immunoregulation of rejection in transplantation and autoimmune disease such as rheumatoid arthritis, systemic lupus erythematosus, inflammatory bowel disease, cancer, juvenile diabetes, myasthenia gravis, multiple sclerosis, and viral diseases. […]

With `COc1ccc(Cn2c(N)nc3c(=O)[nH]c(N)nc32)cc1` [8-amino-9-[(4-methoxyphenyl)methyl]guanine], the “concentration at which selectively cytotoxic to T-cells” value was “about 1.1 uM”.

In the case of `Cc1ccc(Cn2c(N)nc3c(=O)[nH]c(N)nc32)cc1` [8-amino-9-[(4-methylphenyl)methyl]guanine], the “concentration at which selectively cytotoxic to T-cells” value is listed as “about 3.1 uM”.
